Values quoted from earlier work in US8926084B2, “Polymerizable ink composition, ink cartridge containing the same, and inkjet printer” (Ricoh Company, Ltd., priority 2012, dated 2015).
Like-named read-outs stand apart in the source and are kept apart here.

Conditions: material evaluated as no skin sensitization or negative in MSDS has an SI value less than 3, cited from earlier work

SMILES | skin sensitization as mentioned in MSDS (listed as triethylene glycol divinyl ether) | skin sensitization as mentioned in MSDS
C=COCCOCCOCCOC=C [Triethylene glycol divinylether] | free from skin sensitization | –
C=CC(=O)OCC(CC)(COC(=O)C=C)COC(=O)C=C [Trimethylol propane triacrylate (M-309), Trimethylol propane triacrylate] | – | Toagosei Company, Limited, skin sensitization causing
